Source: patent US9695118B2, “Benzamide derivative” (Chugai Seiyaku Kabushiki Kaisha, priority 2012, dated 2017)

Tests used:
DDR1 = DDR1 (Homo sapiens (Human), UniProt Q08345); test: biochemical
Protocol: Measurement of DDR1 Binding Activity
DDR1 binding activity was measured by the LanthaScreen (Registered trademark) Eu Kinase Binding Assay (manufactured by Life Technologies Corporation). […] After reacting at room temperature for one hour, the fluorescence resonance energy transfer was measured.

[1] = system: human endometrial cancer cell line MFE-280; test: Antitumor effect in cancer-bearing mice with subcutaneously transplanted MFE-280; assay type: in vivo; conditions: Dose 200 mg/kg, orally once daily; MFE-280 in BALB/c nude mice; 11th day after start of administration
Protocol: 3. Measurement of Antitumor Effect
The antitumor effect was measured for representative examples of the compounds of the present invention.
The antitumor effect was measured using cancer-bearing mice in which the human endometrial cancer cell line MFE-280 (manufactured by DSMZ) was subcutaneously transplanted to the flank of BALB/c nude mice (manufactured by Charles River Laboratories Japan, Inc.).
About 1×10^7 MFE-280 cells were subcutaneously transplanted to the flank of the purchased nude mice after a one-week quarantine period. The tumor size was measured with calipers, and the tumor volume was calculated (tumor volume=length×breadth^2/2 (mm^3)). The mice were subjected to the experiment when the tumor volume was about 200 mm^3.
The test compound was suspended in the administration solution, and 0.4 mL of the suspension was orally administered once daily. The antitumor effect was calculated as inhibition of tumor growth by comparing the tumor growth between the drug-treated group and the administration solution-administered control group on the 11th day after the start of administration.
Tumor volume growth inhibition (TGI)=(1−tumor volume growth in drug-treated group/tumor volume growth in control group)×100(%)

DDR1, sequence (Q08345 19-913): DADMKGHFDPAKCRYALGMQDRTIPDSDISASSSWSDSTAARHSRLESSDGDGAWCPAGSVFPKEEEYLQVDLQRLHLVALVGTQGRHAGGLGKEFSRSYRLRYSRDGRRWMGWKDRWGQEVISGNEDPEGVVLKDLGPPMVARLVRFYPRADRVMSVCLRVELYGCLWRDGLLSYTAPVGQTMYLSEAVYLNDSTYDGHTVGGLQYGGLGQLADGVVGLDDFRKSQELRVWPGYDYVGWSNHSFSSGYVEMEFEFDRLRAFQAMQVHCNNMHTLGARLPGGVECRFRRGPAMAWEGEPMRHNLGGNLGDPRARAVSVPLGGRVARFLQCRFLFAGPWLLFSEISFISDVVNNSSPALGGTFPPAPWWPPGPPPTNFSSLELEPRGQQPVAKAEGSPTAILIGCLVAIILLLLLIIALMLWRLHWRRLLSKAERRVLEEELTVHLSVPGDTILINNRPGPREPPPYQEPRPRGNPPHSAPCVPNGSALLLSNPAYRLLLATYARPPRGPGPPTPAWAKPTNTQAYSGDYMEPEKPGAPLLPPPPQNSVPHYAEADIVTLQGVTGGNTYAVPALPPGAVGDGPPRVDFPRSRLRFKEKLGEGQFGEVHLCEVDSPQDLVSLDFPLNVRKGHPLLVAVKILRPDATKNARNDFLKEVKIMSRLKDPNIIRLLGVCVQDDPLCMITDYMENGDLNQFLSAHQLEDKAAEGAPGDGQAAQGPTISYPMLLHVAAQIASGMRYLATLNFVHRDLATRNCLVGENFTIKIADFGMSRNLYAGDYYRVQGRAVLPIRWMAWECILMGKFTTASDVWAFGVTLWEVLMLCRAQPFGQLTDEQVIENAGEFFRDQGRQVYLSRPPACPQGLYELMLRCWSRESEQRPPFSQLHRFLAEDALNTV

| SMILES | IC50 (DDR1) [nM] | Antitumor effect TGI after 11 days passed (%) [1] [%] |
| --- | --- | --- |
| C#CCN(CC#C)[C@H]1CCCN(Cc2c(Cl)cc(C(=O)NCc3cc(Cl)ccc3S(=O)(=O)CC)cc2C(F)(F)F)C1 [DD-23, 4-[[(3S)-3-[Bis(prop-2-ynyl)amino]piperidin-1-yl]methyl]-3-chloro-N-[(5-chloro-2-ethylsulfonylphenyl)methyl]-5-(trifluoromethyl)benzamide] | 800 |  |
| CCS(=O)(=O)c1ccc(Cl)cc1CNC(=O)c1ccc(CN2CCN(C)CC2)c(C(F)(F)F)c1 [Compound B-2, N-(5-Chloro-2-ethanesulfonyl-benzyl)-4-(4-methyl-piperazin-1-ylmethyl)-3-trifluoromethyl-benzamide] |  | 61 |
| CCS(=O)(=O)c1ccc(Cl)cc1CNC(=O)c1cc(Br)cc(OC(F)(F)F)c1 [Compound A-10, 3-bromo-N-(5-chloro-2-ethanesulfonyl-benzyl)-5-trifluoromethoxy-benzamide] | 50 |  |
| CCS(=O)(=O)c1ccc(Cl)cc1CNC(=O)c1cc(Cl)c(CN2CCC([N+](C)(C)[O-])CC2)c(C(F)(F)F)c1 [Compound N-24] | 76 |  |
